# Laboratory results taken from patent publication US20110054025A1, “USE OF A PENTACYCLIC TRITERPENE IN A PHARMACEUTICAL COMPOSITION FOR THE TREATMENT OF MULTIPLE SCLEROSIS” (CONSEJO SUPERIOR DE INVESTIGACIONES CIENTIFICAS, priority 2008, published 2011).
# Entries after “also recorded” stand apart in the source; their conditions may differ.
# Tests used:
# Assay type in all cases: in vivo, C57BL/6 mice
# [1] = tested on: leukocyte rolling and adhesion on brain microvasculature; experiment: Intravital fluorescence microscopy of leukocyte-endothelium interactions in brain microvasculature of EAE mice; conditions: vs untreated EAE group
# Procedure: Intravital microscopy techniques allow the study of leukocyte-endothelium interactions. […] To make a precise study of leukocyte-endothelium interactions, we first made a record of the venule for one minute using a camcorder, and in a second time, a more detailed analysis was performed. The parameters of interest were the number of leukocytes adhering to the venular endothelium (number of leukocytes stationary for more than 30 seconds), and the number of rolling leukocytes (number of white cells per minute moving at a velocity less than that of erythrocytes).
# The craniotomy was performed on the parietal zone. Animals received i.v. administration of rhodamine 6G (0.3 mg/kg body weight) to fix leucocytes. The fluorescence associated to rhodamine 6G was visualized at 510-560 nm by epi-ilumination. The microscope (20×) was used for observing micro-circulating events in brain.
# [2] = tested on: Osteopontin; experiment: Osteopontin in CNS tissues of EAE mice by ELISA; conditions: spinal cord, brain and cerebellum, day 21 post-immunization, vs EAE mice
# Procedure: Animals of the different experimental groups were sacrificed at day 21 post-immunization and CNS protein extracts (cerebral cortex, cerebellum and spinal cord) were prepared by homogenization in a solution: 0.4 M NaCl, 0.05% Tween 20, 0.5% BSA, 0.1 mM phenylmethylsulfonyl fluoride, 0.1 mM benzetonium chloride, 10 mM EDTA and 20 KI aprotinin (100 mg tissue/ml). The homogenate was centrifuged at 10,000 rpm for 10 min at 4° C. The concentration of osteopontin was determined in the supernatants by a commercial ELISA kit.
# [3] = tested on: blood-brain barrier permeability; experiment: Evans blue extravasation (blood-brain barrier permeability) in CNS tissues of EAE mice; conditions: spinal cord, brain and cerebellum, vs untreated EAE animals
# Procedure: Evans blue dye is able to bind quantitatively to albumin, both in vivo and in vitro. This property has been widely used for quantification of protein extravasation as an index of increased vascular permeability and, indirectly, of tissue damage. The Evans Blue, once extravasated into the tissues, is removed from them, and then quantified by visible spectrophotometry.
# Mice from all experimental groups were given 30 mg/kg of Evans Blue i.p. Then, the spinal cord, cerebrum and cerebellum was removed and washed in saline. The dye was extracted from the CNS tissues with formamide and the concentration was determined by measuring the absorvance at 620 nm. CNS tissue was dried 24 h at 60° C. and weighed. The extravasated dye was expressed as μg of Evans Blue/mg dried weight of the tissue.
# [4] = tested on: experimental autoimmune encephalomyelitis (EAE) mice; experiment: Experimental autoimmune encephalomyelitis (EAE) in mice: clinical score, body weight, survival
# Procedure: In the experiments we used fifteen animals per group. EAE was induced as described (Slavin A. Autoimmunity 1998, 28: 109) in C57BL mice by […]. The immunization was carried out with 100 μg of a partial peptide of myelin/oligodendrocyte glycoprotein ([…]) in complete Freund's adjuvant containing 4 mg of Mycobacterium tuberculosis H37Ra in 1 ml. The mice were immunized by subcutaneous injection of this emulsion on day 0. In addition, on day 0 and 2, were administered intraperitoneally 300 ng/200 μl of Bordetella pertussis toxin. The administration of 6 mg/kg of oleanolic acid was performed intraperitoneally once a day, beginning:
# 1.—12 days after induction of EAE, when clinical symptoms were detected, until the end of the experiment (21 days after induction) (OA1), and
# 2.—after 7 days of induction of EAE, before the onset of the disease, until the end of the experiment (21 days after induction) (OA2).
# Mice were examined, weighed and scored daily in a double-blind manner for signs of EAE. OA-treated EAE mice were compared with a group of EAE animals treated with placebo, with untreated control animals or control animals received the same daily dose oleanolic acid. In addition, a pathologic evaluation was performed to confirm the effect of improving the state of the disease. The weight of the mice in each group is represented in FIGS. 1 A and 2 A. The level of paralysis reached by each group of mice is shown in FIGS. 1 B and 2 B.
# The effect of disease improvement (clinical effect) by the action of oleanolic acid is scored and evaluated with the pattern presented below.
# Grade 0.5, partial loss/reduced tail tone, assessed by inability to curl the distal end of the tail (Tail 50% or ⅔).
# Grade 1.0, tail atony 100%
# Grade 1.5, slightly/moderately clumsy gait, impaired righting ability, or combination.
# Grade 2.0, hind limb weakness, partial (1 or 2)
# Grade 2.5, partial (1 or 2) hind limb paralysis.
# Grade 3, complete hind limb paralysis.
# Grade 3.5, limb weakness.
# Grade 4, tetraplegic. Complete limb paralysis
# Grade 5, moribund state or death.
# Chronic progressive EAE disease was induced in adult 8-10-wk-old female C57BL/J6 mice following the protocol described by (Slavin A. Autoimmunity 1998, 28:109-20). Mice were injected in the tail base bilaterally with an innoculum containing 100 μg of MOG peptide 35-55 emulsified in complete Freund's adjuvant containing 0.4 mg/ml Mycobacterium tuberculosis H37 RA. Then, i.p. injection 300 ng/animal of B. pertussis toxin was administered by two times with an interval of 48 hours. Mice were examined daily to monitor weight loss and the onset of neurological symptoms
structure (smiles),measurement,setting,value
"CC1(C)CC[C@]2(C(=O)O)CC[C@]3(C)C(=CCC4[C@@]5(C)CC[C@H](O)C(C)(C)C5CC[C@]43C)C2C1 (stereo partly drawn) [oleanolic acid, 3β-hydroxyolean-12-en-28-oic acid]",flow of leukocytes rolling on the endothelium,[1]; protocol EAE+OA1,significant decrease
same,leukocytes adhering to the endothelium,[1]; protocol EAE+OA1,significant decrease
same,flow of leukocytes rolling on the endothelium,[1]; protocol EAE+OA2,significant decrease
same,leukocytes adhering to the endothelium,[1]; protocol EAE+OA2,significant decrease
same,Osteopontin expression in CNS tissues,[2]; protocol OA1,significantly reduced
same,Osteopontin expression in CNS tissues,"[2]; second protocol (printed OA1, FIG. 5: EAE+OA2)",significantly reduced
same,Evans blue leakage in CNS tissues (vascular permeability),[3]; protocol EAE+OA1,significantly reduced leakage
same,Evans blue leakage in CNS tissues (vascular permeability),[3]; protocol EAE+OA2,significantly reduced leakage
same,clinical status / severity of the disease (signs of paralysis score),"[4]; OA1: 6 mg/kg ip daily from day 12 after induction (onset of clinical symptoms) to day 21, vs untreated EAE mice",decreases the severity of the disease; also recorded: significant improvement in clinical status of the disease
same,body weight,"[4]; OA1: 6 mg/kg ip daily from onset of symptoms, recovery effect (FIG. 1A)",reduction of body weight was suppressed
same,body weight,"[4]; OA2: 6 mg/kg ip daily from day 7, preventive effect (FIG. 2A)",reduction of body weight was suppressed
same,onset of the disease,"[4]; OA2: prophylactic, 6 mg/kg ip daily from day 7 after induction to day 21, 6 mg/kg",delays the onset of EAE; also recorded: delay in the onset of the disease
same,severity of EAE (clinical signs),"[4]; OA2: prophylactic, 6 mg/kg ip daily from day 7 after induction to day 21, vs untreated EAE mice",significantly attenuated
same,survival (time until animals die),"[4]; oleanolic acid given at the onset of symptoms, placebo-treated EAE mice die within first 40 days",≥ 60 days post-induction
